The values below come from patent EP3225590A1 (Université de Strasbourg, priority 2016, dated 2017).

Several values for one entry are separate records, joined by “and”; a condition that tells them apart may be missing. Identical values can stand only once. Like-named read-outs stand apart in the source and are kept apart here. A value given as a limit tells only on which side of the number the result lay.

The subject of test [1] is ANRs. The settings on record: 100 µM concentration; ANR-Y2, ANR-L3 and ANR-L5.
Test [2] has as its target ANR-L2. As to the kind of experiment: Fluorescence titration of ANR-L2 suspension with analyte, 1:1 single-site binding fit.
Description: (§1) This fitting procedure was used in favour of a Stern-Volmer analysis, because linearized binding plots are known to produce errors in Kd.
(§2) Herein, FA is the intensity at a given analyte concentration and F0 is the emission intensity before analyte addition. ΔF is a measure of the relative emission increase or decrease caused by the analyte. For fully non emissive AB complexes, i.e. when the analyte A is an efficient quencher, ΔF reaches -1. The quantity cA denotes the concentration of the analyte A and cB denotes the concentration of the "binding stations" in the ANR.
(§3) The values Kd and ΔF result from the non-least square fit given the input FA, F0, cA and cB.
(§4) The concentration cA of the analyte follows directly from the concentration of the stock solution and the added volume to the cuvette with the suspension of the ANR. The concentration cB of the single binding sites per ANR suspension is a priori not known. […] This so obtained value cB was then used as a constant for the fitting of the binding isotherms of the weaker binding analytes. […] In addition, it is reassuring to note that the value of the affinity constant Kd is rather insensitive to the concentration cB.
Test [3] concerns the target ANR-Y1. The test is described as follows: Fluorescence titration of ANR-Y1 suspension with analyte, 1:1 single-site binding fit.
Test [4] has as its target ANR-L1. As to the kind of experiment: Fluorescence titration of ANR-L1 suspension with analyte, 1:1 single-site binding fit. Conditions: for factor weaker binding in the presence of 50 mM Trp than in the absence: ANR-L1, 50 mM Trp as potential competitor.
Test [5] has as its target ANR-L3. The test is described as follows: Fluorescence titration of ANR-L3 suspension with analyte, 1:1 single-site binding fit.
Description: as §1, §2, §3, §4
Test [6] has as its system ANR1. As to the kind of experiment: Binding of tryptophan to ANR1 at acidic pH (data not shown). The settings on record: pH <3.
Test [7] has as its target CB8-D1. Conditions: CB8-D1 (cucurbit[8]uril and dye D1), in water, read-out: Kd (affinity), cited from earlier work.
The test system of test [8] is ANR-L4. As to the kind of experiment: Fluorescence titration of ANR-L4 suspension with analyte, 1:1 single-site binding fit.
Description: as §1, §2, §3, §4
The conditions of test [9]: cucurbit[7]uril, ref. [9]; read-out: Kd(5-HT); cited from earlier work.
In test [10] the target is ANR-Y2. As to the kind of experiment: Fluorescence titration of ANR-Y2 suspension with analyte, 1:1 single-site binding fit.
Description: as §1, §2, §3, §4
The mark [11] stands for this setting: stated for the larger-cavity zeolite-Y-based receptors, printed 'with ANR-L2'.
Setting [12] is: ANR-L3 250 µg/mL in 10 mM HEPES buffer, pH 7.3 (aqueous buffer).
Where [13] appears, read: 10 mM HEPES buffer (pH 7.3), ANR 250 µg/mL, >> = less than 10% change in emission intensity at >50 molar excess of analyte, error less than ±20%, read-out: Kd(ANR-Y1).
Where [14] appears, read: 10 mM HEPES buffer (pH 7.3), ANR 250 µg/mL, >> = less than 10% change in emission intensity at >50 molar excess of analyte, error less than ±20%, read-out: Kd(ANR-L1).
Where [15] appears, read: ANR-Y1 250 µg/mL, 10 mM HEPES buffer (pH 7.3), read-out: single site dissociation constant Kd.
The mark [16] stands for this setting: ANR-L1 250 µg/mL, 10 mM HEPES buffer (pH 7.3) with 50 mM tryptophan added, read-out: Kd.
Where [17] appears, read: read-out: single site dissociation constant Kd, ANR-Y2 250 µg/mL, 10 mM HEPES buffer (pH 7.3).

Take `CN1CCCC1c1cccnc1` (stereo not drawn) [nicotine]: the “effect on emission intensity” value in test [1] is listed as “no appreciable effect”.

Consider `CNC[C@H](O)c1ccc(O)c(O)c1` [epinephrine], for which the Kd in test [2] (ANR-L2, zeolite-L based) was 240 µM; in test [2] (setting [11]), 39 µM; in test [3] (pH 7.3, read-out: Kd(ANR-Y1)), 26 µM; in [4] (pH 7.3, read-out: Kd(ANR-L1)), over 600 µM.

In turn, `NCCc1c[nH]cn1` [histamine] gave a Kd in [5] (setting [12]) of 360 µM.

With `N[C@@H](Cc1c[nH]c2ccccc12)C(=O)O` [tryptophan (Trp), tryptophan], the “binding to ANR1” value is reported as “binding” in test [6] and “bind” in test [6] (listed as trytophane). Also, the Kd in test [7] was about 6.3 µM; in [3] (setting [13]), over 1000 µM; in [4] (setting [14]), over 1000 µM.

Turning to `NCCc1ccccc1` [phenethylamine], the Kd in [5] (setting [12]) was determined as 190 µM; in test [8] (ANR-L4, partial emission quenching), 19 µM. The molecule further showed a residual emission int. in test [8] (ANR-L4, at 25 µM of analyte) of 75%.

Consider `Nc1ncnc2c1ncn2[C@@H]1O[C@H](CO)[C@@H](O)[C@H]1O` [adenosine], for which the Kd in [3] (setting [13]) and in [4] (setting [14]) was over 1000 µM each time.

As for `N[C@@H](Cc1ccc(O)c(O)c1)C(=O)O` [L-DOPA], the Kd in test [3] (setting [13]) and in test [4] (setting [14]) was over 1000 µM each time.

As for `COc1ccc2[nH]cc(CCNC(C)=O)c2c1` [melatonin], the Kd in [3] (setting [13]) and in test [4] (setting [14]) was over 1000 µM each time.

For the molecule `O=C(O)Cc1c[nH]c2ccccc12` [indole-3-acetic acid], the Kd in [3] (setting [13]) and in [4] (setting [14]) was over 1000 µM throughout.

Turning to `c1ccc2[nH]ccc2c1` [indole], the Kd in test [3] (setting [13]) and in [4] (setting [14]) was over 1000 µM in each case.

Consider `NCCCCCN` [cadaverine], for which the Kd in [3] (setting [13]) and in test [4] (setting [14]) was over 1000 µM each time.

For the molecule `NCCO` [ethanolamine], the Kd in test [3] (setting [13]) and in [4] (setting [14]) was over 1000 µM each time.

As for `CC(=O)OCC[N+](C)(C)C` [acetylcholin], the Kd in test [3] (setting [13]) and in [4] (setting [14]) was over 1000 µM each time.

Take `N[C@@H](Cc1c[nH]cn1)C(=O)O` [histidine]: the Kd in [3] (setting [13]) and in [4] (setting [14]) was over 1000 µM in each case.

`Oc1ccccc1O` [catechol]: the Kd in [3] (setting [13]) and in test [4] (setting [14]) was over 1000 µM each time.

As to `N[C@@H](Cc1ccccc1)C(=O)O` [phenylalanine], the Kd in test [3] (setting [13]) and in test [4] (setting [14]) was over 1000 µM each time.

`NCCc1c[nH]c2ccc(O)cc12` [serotonin (5-HT), serotonin]: the Kd is 2 µM in [2] (read-out: approximated dissociation constant (Kd = 1/slope), Stern-Volmer plot, ANR-L2); about 15 µM in test [9]; 0.07 µM in test [3] (setting [13]); 0.07 µM and ~0.07 µM in test [3] (setting [15]); 3.3 µM in [4] (setting [14]); 14 µM in test [4] (setting [16]). Also, the Kd in test [4] (ANR-L1 250 µg/mL, ethanolic media (ethanol with 0.2 mM acetic acid), read-out: single site dissociation constant Kd) is about 25 µM; in [4] (ANR-L1 250 µg/mL, water and aqueous buffer, read-out: single site dissociation constant Kd), about 3 µM; in [4] (read-out: approximated dissociation constant (Kd = 1/slope), Stern-Volmer plot, ANR-L1) it was 4 µM. The “factor weaker binding in the presence of 50 mM Trp than in the absence” value (“factor weaker binding in the presence” below) in test [4] was ~ 4.

With `N[C@@H](Cc1ccc(O)cc1)C(=O)O` [tyrosine], the Kd in [3] (setting [13]) and in test [4] (setting [14]) was over 1000 µM throughout.

Turning to `NC(=O)[C@@H](N)Cc1c[nH]c2ccccc12` [TrpNH2], the Kd was 2.7 µM in test [10] (setting [17]); 2.2 µM in [7] (listed as TrpNF2); about 2.2 µM in test [7]; 0.11 µM in [3] (setting [13]); about 0.11 µM in test [3] (setting [15]); 32 µM in test [4] (setting [14]).

In the case of `CC(=O)CCc1ccc(O)cc1` [raspberry ketone], the Kd in test [3] (setting [13]) and in test [4] (setting [14]) was over 1000 µM each time.

With `NCC(=O)O` [glycine (Gly), glycine], the Kd in [3] (setting [13]) and in [4] (setting [14]) was over 1000 µM in each case.

Consider `NC[C@H](O)c1ccc(O)c(O)c1` [norepinephrine], for which the Kd in test [2] (ANR-L2, zeolite-L based) is 13 µM; in test [2] (setting [11]), 26 µM; in test [3] (setting [13]) it was 11 µM; in [4] (setting [14]), 31 µM.

On to `NCCc1c[nH]c2ccccc12` [tryptamine], for which the Kd in test [3] (setting [13]) is 0.15 µM; in [5] (setting [12]), about 9 µM; in [5] (ANR-L3, neat chloroform (absence of acetic acid)), 15 µM; in test [5] (read-out: single site dissociation constant Kd, ANR-L3 250 µg/mL, chloroform:acetic acid (99:1)), 4 µM; in [4] (setting [14]), 10 µM; in test [4] (setting [16]) it was 27 µM. Moreover, the Kd in test [4] (read-out: single site dissociation constant Kd) stood at 3 µM. Also, the “factor weaker binding in the presence” value in [4] was ~ 3.

As for `NCCc1ccc(O)c(O)c1` [dopamine], the Kd in test [10] (read-out: approximated dissociation constant (Kd = 1/slope), Stern-Volmer plot, ANR-Y2) turned out to be 10 µM; in [10] (setting [17]), 9.5 µM; in test [3] (setting [13]), 3.4 µM; in [3] (read-out: approximated dissociation constant (Kd = 1/slope), Stern-Volmer plot, ANR-Y1) it was 4 µM; in [5] (read-out: approximated dissociation constant (Kd = 1/slope), Stern-Volmer plot, ANR-L3), 15 µM; in test [4] (setting [14]), 16 µM. The Kd came to 48 µM in [4] (setting [16]) and 7 µM in [8] (read-out: approximated dissociation constant (Kd = 1/slope), Stern-Volmer plot, ANR-L4). Further, the “factor weaker binding in the presence” value in test [4] is ~ 3.

`N[C@H](CO)C(=O)O` [D-serine]: the Kd in test [3] (setting [13]) and in test [4] (setting [14]) was over 1000 µM in each case.

Turning to `N[C@@H](CCC(=O)O)C(=O)O` [glutamate], the Kd in test [3] (setting [13]) and in test [4] (setting [14]) was over 1000 µM each time.

For the molecule `NCCc1ccc(O)cc1` [tyramine], the Kd in [3] (setting [13]) turned out to be 5.7 µM; in [4] (setting [14]) it was 27 µM. For the same molecule, the “quenching of the emission of ANR-L3” value in test [5] (titration curve shows saturation behaviour) was 30%.

As to `CNC[C@H](O)c1cccc(O)c1` [phenylephrine], the Kd is 55 µM in [3] (setting [13]) and over 600 µM in test [4] (setting [14]).

On to `CCC(=O)Nc1ccc(Cl)c(Cl)c1` [propanil], for which the Kd in [3] (setting [13]) and in test [4] (setting [14]) was over 1000 µM in each case.

In the case of `NCC(O)c1ccc(O)cc1` (stereo not drawn) [octopamine], the Kd in test [3] (setting [13]) turned out to be 11 µM; in test [4] (setting [14]), 40 µM.

For the molecule `N[C@@H](Cc1c[nH]c2ccc(O)cc12)C(=O)O` [5-HTP], the Kd in test [3] (setting [13]) and in [4] (setting [14]) was over 1000 µM each time.

Consider `CC(=O)Nc1ccc(O)cc1` [paracetamol], for which the Kd in test [3] (setting [13]) and in [4] (setting [14]) was over 1000 µM in each case.
